Measured values from ChEMBL document CHEMBL5625205, “3-Methoxy-2-phenylimidazo[1,2-b]pyridazines highly active against Mycobacterium tuberculosis and Mycobacterium marinum” (Eur J Med Chem, 2023).
Values after ≈ are worked out from the molar mass of the structure shown. Active and inactive are the calls of the source. The rule behind the calls is not given here.

Tests used:
[1] = test system: Mycobacterium tuberculosis; assay: Antimycobacterial activity against Mycobacterium tuberculosis H37Ra assessed as inhibition of bacterial growth measured for 5 days by luminometer; format: functional; conditions: 120 h, time 5 day
Mycobacterium marinum = assay: Antimycobacterial activity against Mycobacterium marinum assessed as inhibition of bacterial growth measured for 5 days by luminometer; format: functional; conditions: 120 h, time 5 day
[2] = Octanol-water distribution coefficient, logD of the compound at pH 7.4 by HPLC analysis; format: physicochemical
[3] = Kinetic solubility of compound in DMSO at pH 2 incubated for 30 mins by laser nephelometry; format: physicochemical; conditions: read-out: Kinetic_solubility
[4] = Kinetic solubility of compound in DMSO at pH 6.5 incubated for 30 mins by laser nephelometry; format: physicochemical; conditions: read-out: Kinetic_solubility
[5] = Metabolic stability in mouse liver microsomes assessed as half life incubated for 60 mins in presence of NADPH; format: ADME, Microsome
[6] = Metabolic stability in mouse liver microsomes assessed as intrinsic clearance incubated for 60 mins in presence of NADPH; format: ADME, Microsome; conditions: read-out: CLH
[7] = test system: Mycobacterium tuberculosis; assay: Antimycobacterial activity against Mycobacterium tuberculosis H37Ra infected in mouse assessed as reduction in relative light unit in lung at 30 to 300 mg/kg,po administrated once daily for 5 days; format: functional, organism-based; conditions: dose 30-300 mg/kg, time 5.0 day
[8] = test system: Mycobacterium tuberculosis; assay: Antimycobacterial activity against Mycobacterium tuberculosis H37Ra infected in mouse assessed as reduction in relative light unit in lung at 10 mg/kg,po administrated once daily for 5 days; format: functional, organism-based; conditions: time 5.0 day

Compound | MIC90 [1] [µM] | MIC90 (Mycobacterium marinum) [µM] | further results
COc1c(-c2ccc(F)cc2)nc2ccc(N(C)Cc3ccccc3)nn12 | 1.38 (≈ 0.5 µg/mL) | 1.38 (≈ 0.5 µg/mL) | 
COc1cccc(COc2ccc3nc(-c4ccc(C(F)(F)F)cc4)c(OC)n3n2)c1 | > 230 | > 230 | 
CCOc1c(-c2ccccc2F)nc2ccc(SCc3cccc(OC)c3)nn12 | 3.05 (≈ 1.25 µg/mL) | 3.05 (≈ 1.25 µg/mL) | 
COc1c(-c2ccccc2)nc2ccc(SCc3cc(C)on3)nn12 | 284 (≈ 100 µg/mL) | 284 (≈ 100 µg/mL) | 
COc1ccc(-c2nc3ccc(SCc4ccccc4)nn3c2OC)cc1 | > 260 |  | 
COc1cccc(CNc2ccc3nc(-c4cccc(C(F)(F)F)c4)c(OC)n3n2)c1 | 23.3 (≈ 9.98 µg/mL) | 9.34 (≈ 4 µg/mL) | 
COc1c(-c2ccccc2)nc2ccc(SC)nn12 | 18.4 (≈ 4.99 µg/mL) | 36.9 (≈ 10 µg/mL) | 
COc1cccc(CSc2ccc3nc(-c4ccc(F)cc4F)c(CN(C)C)n3n2)c1 | 227 (≈ 100 µg/mL) | 227 (≈ 100 µg/mL) | 
COc1c(-c2ccccc2)nc2ccc(SCc3ccccn3)nn12 | 5.74 (≈ 2 µg/mL) | 2.87 (≈ 1 µg/mL) | 
COc1c(-c2ccccc2)nc2ccc(Sc3ccccc3)nn12 | 150 (≈ 50 µg/mL) |  | 
COc1c(-c2ccccc2F)nc2ccc(N(C)Cc3ccccc3)nn12 | 0.69 (≈ 0.25 µg/mL) | 0.69 (≈ 0.25 µg/mL) | logD [2]: 4.5; solubility kinetic at 0.5 h [3]: 25 µg/mL (≈ 69 µM); solubility kinetic at 0.5 h [4]: < 1.6 µg/mL; half-life [5]: 4 min; microsomal CLint [6]: 405 µL/min/mg; Activity [7]: inactive
Cc1c(-c2ccccc2)nc2ccc(OCc3ccccc3)nn12 | 317 (≈ 100 µg/mL) | 317 (≈ 100 µg/mL) | 
COc1cccc(CSc2ccc3nc(-c4ccc(OC)c(OC)c4)c(OC)n3n2)c1 | > 220 | > 220 | 
CN(Cc1ccccc1)c1ccc2nc(-c3ccc(C(F)(F)F)cc3)c(O)n2n1 | > 251 | 251 (≈ 100 µg/mL) | 
c1ccc(COc2ccc3nc(-c4ccccc4)cn3n2)cc1 | 332 (≈ 100 µg/mL) | > 330 | 
COc1cccc(CSc2ccc3nc(-c4ccc(F)cc4)cn3n2)c1 | 27.4 (≈ 10 µg/mL) | 2.74 (≈ 1 µg/mL) | 
COc1c(-c2ccc(F)cc2)nc2ccc(SCc3ccsc3)nn12 | 26.9 (≈ 9.99 µg/mL) | 5.38 (≈ 2 µg/mL) | 
COc1c(Cc2ccccc2)nc2ccc(SCc3cccc(C)c3)nn12 | 87.9 (≈ 33 µg/mL) | 26.6 (≈ 9.99 µg/mL) | 
COc1cccc(CNc2ccc3nc(-c4ccccc4)c(OC)n3n2)c1 | 6.94 (≈ 2.5 µg/mL) | 6.94 (≈ 2.5 µg/mL) | 

Compound | MIC90 [1] [µM] | MIC90 (Mycobacterium marinum) [µM] | further results
CN(Cc1ccccc1)c1ccc2nc(-c3ccccc3F)c(O)n2n1 | 144 (≈ 50.2 µg/mL) | 287 (≈ 100 µg/mL) | 
COc1ccc(CSc2ccc3nc(-c4ccc(F)cc4)c(OC)n3n2)cc1 | 6.32 (≈ 2.5 µg/mL) | 12.6 (≈ 4.98 µg/mL) | 
COc1c(-c2ccccc2)nc2ccc(OCc3ccccc3)nn12 | 3.02 (≈ 1 µg/mL) | 1.51 (≈ 0.5 µg/mL) | 
COc1cccc(CSc2ccc3nc(-c4ccccc4F)c(OC)n3n2)c1 | 1.26 (≈ 0.498 µg/mL) | 0.15 (≈ 0.0593 µg/mL) | Activity [7]: inactive
COc1cccc(CNc2ccc3nc(-c4ccc(C)cc4)c(OC)n3n2)c1 | 13.4 (≈ 5.02 µg/mL) | 13.4 (≈ 5.02 µg/mL) | 
COc1c(-c2ccc(F)cc2F)nc2ccc(SCc3ccsc3)nn12 | 10.3 (≈ 4.01 µg/mL) | 2.57 (≈ 1 µg/mL) | 
CO[C@H]1/C=C/O[C@@]2(C)Oc3c(C)c(O)c4c(O)c(c(/C=N/N5CCN(C)CC5)c(O)c4c3C2=O)NC(=O)/C(C)=C\C=C\[C@H](C)[C@H](O)[C@@H](C)[C@@H](O)[C@@H](C)[C@H](OC(C)=O)[C@@H]1C [RIFAMPIN] | 0.073 (≈ 0.0601 µg/mL) | 0.24 (≈ 0.198 µg/mL) | Activity [8]: Active
CN(C)Cc1c(-c2ccccc2)nc2ccc(SCc3ccccc3)nn12 | 6.68 (≈ 2.5 µg/mL) | 13.4 (≈ 5.02 µg/mL) | 
COc1cccc(CSc2ccc3nc(-c4ccc(Cl)c(Cl)c4)c(OC)n3n2)c1 | > 220 | > 220 | 
COc1c(-c2ccc(C(F)(F)F)cc2)nc2ccc(N(C)Cc3ccccc3)nn12 | 6.06 (≈ 2.5 µg/mL) | 12.1 (≈ 4.99 µg/mL) | 
COc1cccc(CSc2ccc3nc(-c4cccc([N+](=O)[O-])c4)c(OC)n3n2)c1 | > 230 | > 230 | 
COc1cccc(COc2ccc3nc(-c4cccc(C(F)(F)F)c4)c(OC)n3n2)c1 | > 230 |  | 
COc1cccc(CSc2ccc3nc(-c4ccc(F)cc4)c(OC)n3n2)c1 | 0.63 (≈ 0.249 µg/mL) | 0.63 (≈ 0.249 µg/mL) | logD [2]: 4.9; solubility kinetic at 0.5 h [3]: 1.6 µg/mL (≈ 4.05 µM); solubility kinetic at 0.5 h [4]: < 1.6 µg/mL; half-life [5]: < 2 min; microsomal CLint [6]: > 866 µL/min/mg; Activity [7]: inactive
COc1cccc(CSc2ccc3nc(-c4ccc(Br)cc4)c(OC)n3n2)c1 | 11 (≈ 5 µg/mL) | 11 (≈ 5.02 µg/mL) | 
COc1cccc(CNc2ccc3nc(-c4cccc(F)c4)c(OC)n3n2)c1 | 52.9 (≈ 20 µg/mL) | 26.4 (≈ 9.99 µg/mL) | 
COc1c(Cc2ccccc2)nc2ccc(SCc3cccc([N+](=O)[O-])c3)nn12 | > 245 | 24.6 (≈ 10 µg/mL) | 
COc1c(-c2cccc(N)c2)nc2ccc(N(C)Cc3ccccc3)nn12 | 34.8 (≈ 12.5 µg/mL) | 13.9 (≈ 5 µg/mL) | 
CCOc1c(-c2ccccc2)nc2ccc(SCc3cccc(OC)c3)nn12 | 2.55 (≈ 0.998 µg/mL) | 1.28 (≈ 0.501 µg/mL) | 
COc1cccc(CSc2ccc3nc(-c4ccc(F)cc4F)c(OC)n3n2)c1 | 15.1 (≈ 6.24 µg/mL) | 1.21 (≈ 0.5 µg/mL) | 
